Where two headings read alike, the source gives them in different places.
Legend:
Rhesus PDE2A3 = Rhesus PDE2A3 (Macaca mulatta, UniProt B3VTJ2); assay: PDE2 fluorescence polarization (IMAP FP) assay, rhesus PDE2A3; format: biochemical, rhesus macaque
human PDE2A1 = human PDE2A1 (Homo sapiens (Human), UniProt O00408); assay: PDE selectivity IMAP FP assay, human PDE2A1; format: biochemical; settings: Human PDE2
How it was run: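 Compound titrations run against PDE2 in Tris HCl pH 7.2 buffer with MgCl2 and DTT for 60 min at room temperature, using 50 nM FAM-cAMP plus 1000 nM cGMP and enzyme giving 20% conversion.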

[1] = Lab B, read-out: Rhesus PDE2 Ki (nM) Lab B
[2] = Lab B, read-out: Human PDE2 Ki (nM) Lab B

human PDE2A1, sequence (O00408 other isoform, or with tags, fused parts or gaps): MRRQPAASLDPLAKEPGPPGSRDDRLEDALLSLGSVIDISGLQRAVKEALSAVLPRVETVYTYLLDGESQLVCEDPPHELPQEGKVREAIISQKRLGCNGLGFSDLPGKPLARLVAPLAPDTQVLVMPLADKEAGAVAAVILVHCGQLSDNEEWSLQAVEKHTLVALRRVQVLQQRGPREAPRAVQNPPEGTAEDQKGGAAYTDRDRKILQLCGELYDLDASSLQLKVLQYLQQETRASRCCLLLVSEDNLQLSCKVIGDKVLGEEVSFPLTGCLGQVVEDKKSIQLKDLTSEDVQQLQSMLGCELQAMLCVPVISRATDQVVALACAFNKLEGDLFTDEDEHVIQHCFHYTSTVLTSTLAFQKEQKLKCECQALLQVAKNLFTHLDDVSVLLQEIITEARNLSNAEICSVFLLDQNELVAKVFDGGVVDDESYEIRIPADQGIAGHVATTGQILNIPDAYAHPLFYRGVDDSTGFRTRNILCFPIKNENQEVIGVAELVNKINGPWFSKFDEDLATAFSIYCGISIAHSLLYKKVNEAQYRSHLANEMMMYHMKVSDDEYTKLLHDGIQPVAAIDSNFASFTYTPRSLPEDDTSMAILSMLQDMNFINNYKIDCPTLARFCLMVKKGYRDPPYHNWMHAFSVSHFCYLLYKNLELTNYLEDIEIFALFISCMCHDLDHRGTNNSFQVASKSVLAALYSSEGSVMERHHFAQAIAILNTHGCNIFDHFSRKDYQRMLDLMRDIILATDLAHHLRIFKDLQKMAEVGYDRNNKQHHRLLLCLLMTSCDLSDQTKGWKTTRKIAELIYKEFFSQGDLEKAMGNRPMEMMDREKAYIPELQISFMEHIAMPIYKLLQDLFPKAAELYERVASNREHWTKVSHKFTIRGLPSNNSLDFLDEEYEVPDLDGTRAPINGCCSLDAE
Rhesus PDE2A3, sequence (B3VTJ2 1-941): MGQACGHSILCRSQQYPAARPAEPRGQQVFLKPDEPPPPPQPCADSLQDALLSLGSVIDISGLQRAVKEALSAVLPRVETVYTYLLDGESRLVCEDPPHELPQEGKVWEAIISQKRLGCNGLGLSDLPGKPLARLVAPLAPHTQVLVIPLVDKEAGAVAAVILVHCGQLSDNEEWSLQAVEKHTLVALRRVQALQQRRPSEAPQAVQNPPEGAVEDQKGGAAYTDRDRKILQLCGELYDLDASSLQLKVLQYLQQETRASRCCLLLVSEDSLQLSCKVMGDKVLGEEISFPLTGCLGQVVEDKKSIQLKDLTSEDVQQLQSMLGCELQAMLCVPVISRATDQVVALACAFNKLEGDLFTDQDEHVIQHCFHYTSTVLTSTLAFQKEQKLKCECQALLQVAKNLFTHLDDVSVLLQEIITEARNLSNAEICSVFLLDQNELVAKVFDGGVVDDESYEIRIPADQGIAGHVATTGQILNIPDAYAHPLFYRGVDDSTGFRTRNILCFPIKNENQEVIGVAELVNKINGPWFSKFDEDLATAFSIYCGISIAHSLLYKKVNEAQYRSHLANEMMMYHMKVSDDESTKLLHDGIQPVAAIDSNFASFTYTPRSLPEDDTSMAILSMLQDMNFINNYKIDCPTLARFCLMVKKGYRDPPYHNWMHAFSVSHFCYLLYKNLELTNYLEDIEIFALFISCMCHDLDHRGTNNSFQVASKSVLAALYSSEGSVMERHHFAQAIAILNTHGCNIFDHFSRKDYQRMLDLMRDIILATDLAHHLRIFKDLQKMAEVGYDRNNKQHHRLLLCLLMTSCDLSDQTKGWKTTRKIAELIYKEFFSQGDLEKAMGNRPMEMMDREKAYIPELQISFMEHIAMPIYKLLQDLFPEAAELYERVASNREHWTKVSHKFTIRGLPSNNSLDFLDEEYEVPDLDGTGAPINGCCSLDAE

Row | Compound | Ki (Rhesus PDE2A3; [1]) | Ki (human PDE2A1; [2]) | Ki (Rhesus PDE2A3; Rhesus PDE2 Ki (nM) Lab B, Lab B) | Ki (Rhesus PDE2A3; Lab A, read-out: Rhesus PDE2 Ki (nM) Lab A) | Ki (human PDE2A1; Lab A, read-out: Human PDE2 Ki (nM) Lab A)
1 | CCC(c1ccc(C(F)(F)F)c(F)c1)n1nc(CO)c2c(=O)[nH]c(N(C)C)nc21 (single isomer, unassigned) [Example 144, (R)- or (S)-6-(Dimethylamino)-1-(1-(3-fluoro-4-(trifluoromethyl)phenyl)propyl)-3-(hydroxymethyl)-1H-pyrazolo[3,4-d]pyrimidin-4(5H)-one] | 3.1 nM | 1.7 nM |  |  | 
2 | CCC(c1ccc(C(C)(F)F)cc1F)n1nc(CO)c2c(=O)[nH]c(N(C)C)nc21 (single isomer, unassigned) [Example 111, (S)- or (R)-1-(1-(4-(1,1-Difluoroethyl)-2-fluorophenyl)propyl)-6-(dimethylamino)-3-(hydroxymethyl)-1H-pyrazolo[3,4-d]pyrimidin-4(5H)-one] | 0.14 nM | 0.12 nM |  |  | 
3 | CC(C)C(c1ccc(C(F)(F)F)cc1)n1nc(CF)c2c(=O)[nH]c(N(C)C)nc21 (single isomer, unassigned) [Example 163] | 0.07 nM | 0.056 nM |  |  | 
4 | CCC(c1ccc(C(F)(F)F)cc1)n1nc(CO)c2c(=O)[nH]c(N(C)C)nc21 (single isomer, unassigned) [Example 73, (S)- or (R)-6-(Dimethylamino)-3-(hydroxymethyl)-1-(1-(4-(trifluoromethyl)phenyl)propyl)-1H-pyrazolo[3,4-d]pyrimidin-4(5H)-one] | 0.25 nM | 0.16 nM |  |  | 
5 | CC(c1ccc(C(F)(F)F)cc1F)n1nc(CO)c2c(=O)[nH]c(N(C)C)nc21 (single isomer, unassigned) [Example 81, (S)- or (R)-6-(Dimethylamino)-1-(1-(2-fluoro-4-(trifluorornethyl)phenyl)ethyl)-3-(hyrdroxymethyl)-1H-pyrazolo[3,4-d]pyrimidin-4(5H)-one] | 0.25 nM | 0.29 nM |  |  | 
6 | O=c1[nH]c(O)nc2c1c(C(F)F)nn2C(c1ccc(C(F)(F)F)cc1)C1CC1 (single isomer, unassigned) [Example 279, (R)- or (S)-1-(Cyclopropyl(4-(trifluoromethyl)phenyl)methyl)-3-(difluoromethyl)-6-hydroxy-1H-pyrazolo[3,4-d]pyrimidin-4(5H)-one] | 1.8 nM | 1.9 nM |  |  | 
7 | CC(C)C(c1ccc(C(F)(F)F)c(F)c1)n1nc(CO)c2c(=O)[nH]c(N(C)C)nc21 (single isomer, unassigned) [Example 142, (R)- or (S)-6-(Dimethylamino)-1-(1-(3-fluoro-4-(trifluoromethyl)phenyl)-2-methylpropyl)-3-(hydroxymethyl)-1H-pyrazolo[3,4-d]pyrimidin-4(5H)-one] | 0.29 nM | 0.19 nM |  |  | 
8 | CC(C)C(c1ccc(C(F)(F)F)cc1)n1nc(C(F)F)c2c(=O)[nH]c(O)nc21 (single isomer, unassigned) [Example 282, (S)- or (R)-3-(Difluoromethyl)-6-hydroxy-1-(2-methyl-1-(4-(trifluoromethyl)phenyl)propyl)-1H-pyrazolo[3,4-d]pyrimidin-4(5H)-one] | 51 nM | 59 nM |  |  | 
9 | C[C@@H](c1ccc(C(F)(F)F)cc1)n1nc(CC#N)c2c(=O)[nH]c(O)nc21 [Example 298, (S)-2-(6-Hydroxy-4-oxo-1-(1-(4-(trifluoromethyl)phenyl)ethyl)-4,5-dihydro-1H-pyrazolo[3,4-d]pyrimidin-3-yl)acetonitrile] | 5 nM | 4.7 nM |  |  | 
10 | C[C@@H](c1ccc(C(C)(C)C)cc1)n1nc(CF)c2c(=O)[nH]c(O)nc21 [Example 47, (S)-1-(1-(4-tert-Butylphenyl)ethyl)-3-(fluoromethyl)-6-hydroxy-1H-pyrazolo[3,4-d]pyrimidin-4(5H)-one] | 6.9 nM | 5.1 nM |  |  | 
11 | C[C@@H](c1ccc(C(F)(F)F)cc1)n1nc(CO)c2c(=O)[nH]c(N3CC(F)C3)nc21 [Example 161, 6-(3-Fluoroazetidin-1-yl)-3-(hydroxymethyl)-1-{(1S)-1-[4-(trifluoromethyl)phenyl]ethyl}-1,5-dihydro-4H-pyrazolo[3,4-d]pyrimidin-4-one] | 1.9 nM | 1.6 nM |  |  | 
12 | CC(c1ccc(C(C)(F)F)cc1F)n1nc(CO)c2c(=O)[nH]c(N(C)C)nc21 (single isomer, unassigned) [Example 108, (R)- or (S)-1-(1-(4-(1,1-DiHuoroethyl)-2-fluoroplienyl)ethyl)-6-(dimethylamino)-3-(hydroxymethyl)-1H-pyrazolo[3,4-d]pyrimidin-4(5H)-one] | 0.18 nM | 0.23 nM |  |  | 
13 | CC(C)C(c1ccc(OC(F)(F)F)cc1)n1nc(CF)c2c(=O)[nH]c(O)nc21 (single isomer, unassigned) [Example 42, (R)- or (S)-3-(Fluoromethyl)-6-hydroxy-1-(2-methyl-1-(4-(trifluoromethoxy)phenyl)propyl)-1H-pyrazolo[3,4-d]pyrimidin-4(5H)-one] |  | 14 nM | 16 nM |  | 
14 | Cc1nn(C(C)c2ccc(C(F)(F)F)cc2)c2nc(N3CCCC3)[nH]c(=O)c12 (centres unmarked) [Example 268, 3-Methyl-6-pyrrolidin-1-yl-1-{1-[4-(trifluoromethyl)phenyl]ethyl}-1,5-dihydro-4H-pyrazolo[3,4-d]pyrimidin-4-one] |  |  |  | 8 nM | 5.6 nM

Continued, values first:

Row | Ki (Rhesus PDE2A3; [1]) | Ki (human PDE2A1; [2]) | Ki (Rhesus PDE2A3; Rhesus PDE2 Ki (nM) Lab B, Lab B) | Ki (Rhesus PDE2A3; Lab A, read-out: Rhesus PDE2 Ki (nM) Lab A) | Ki (human PDE2A1; Lab A, read-out: Human PDE2 Ki (nM) Lab A) | Compound
15 | 0.027 nM | 0.016 nM |  |  |  | CCC(c1ccc(C(C)(F)F)c(F)c1)n1nc(CF)c2c(=O)[nH]c(N(C)C)nc21 (single isomer, unassigned) [Example 217, (S)- or (R)-1-(1-(4-(1,1-Difluoroethyl)-3-fluorophenyl)propyl)-6-(dimethylamino)-3-(fluoromethyl)-1H-pyrazolo[3,4-d]pyrimidin-4(5H)-one]
16 | 1.4 nM | 1.1 nM |  |  |  | CCC(c1ccc(C(C)(F)F)c(F)c1)n1nc(CF)c2c(=O)[nH]c(N(C)C)nc21 (single isomer, unassigned) [Example 216, (R)- or (S)-1-(1-(4-(1,1-Difluoroethyl)-3-fluorophenyl)propyl)-6-(dimethylamino)-3-(fluoromethyl)-1H-pyrazolo[3,4-d]pyrimidin-4(5H)-one]
17 | 0.15 nM | 0.14 nM |  |  |  | CN(C)c1nc2c(c(CO)nn2C(c2ccc(CC(F)(F)F)c(F)c2)C2CC2)c(=O)[nH]1 (single isomer, unassigned) [Example 94, (R)- or (S)-1-(Cyclopropyl(3-fluoro-4-(2,2,2-trifluoroethyl)phenyl)methyl)-6-(dimethylamino)-3-(hydroxymethyl)-1H-pyrazolo[3,4-d]pyrimidin-4(5H)-one]
18 | 0.12 nM | 0.12 nM |  |  |  | CN(C)c1nc2c(c(CO)nn2C(c2ccc(C(F)(F)F)c(F)c2)C2CC2)c(=O)[nH]1 (single isomer, unassigned) [Example 150, (R)- or (S)-1-(Cyclopropyl(3-fluoro-4-(trifluoromelhyl)phenyl)methyl)-6-(dimethylamino)-3-(hydroxymethyl)-1H-pyrazolo[3,4-d]pyrimidin-4(5H)-one]
19 | 11 nM | 7.1 nM |  |  |  | CC(c1ccc(C(F)(F)F)c(F)c1)n1nc(CO)c2c(=O)[nH]c(N(C)C)nc21 (single isomer, unassigned) [Example 68, (R)- or (S)-6-(Dimethylamino)-1-(1-(3-fluoro-4-(trifluoromethyl)phenyl)ethyl)-3-(hydroxymethyl)-1H-pyrazolo[3,4-d]pyrimidin-4(5H)-one]
20 | 0.14 nM | 0.077 nM |  |  |  | CC(c1ccc(C(C)(F)F)cc1F)n1nc(CF)c2c(=O)[nH]c(N(C)C)nc21 (single isomer, unassigned) [Example 209, (S)- or (R)-1-(1-(4-(1,1-Difluoroethyl)-2-fluorophenyl)ethyl)-6-(dimethylamino)-3-(fluoromethyl)-1H-pyrazolo[3,4-d]pyrimidin-4(5H)-one]
21 | 0.35 nM | 0.29 nM |  |  |  | CC(c1ccc(CC(F)(F)F)c(F)c1)n1nc(CO)c2c(=O)[nH]c(N(C)C)nc21 (single isomer, unassigned) [Example 101, (S)- or (R)-6-(Dimethylamino)-1-(1-(3-fluoro-4-(2,2,2-trifluoroethyl)phenyl)ethyl)-3-(hydroxymethyl)-1H-pyrazolo[3,4-d]pyrimidin-4(5H)-one]
22 | 0.11 nM | 0.058 nM |  |  |  | CN(C)c1nc2c(c(CF)nn2C(c2ccc(C(F)(F)F)c(F)c2)C2CC2)c(=O)[nH]1 (single isomer, unassigned) [Example 181, (S)- or (R)-1-(Cyclopropyl(3-fluoro-4-(trifluoromethyl)phenyl)methyl)-6-(dimethylamino)-3-(fluoromethyl)-1H-pyrazolo[3,4-d]pyrimidin-4(5H)-one]
23 | 0.72 nM | 0.6 nM |  |  |  | CN(C)c1nc2c(c(CO)nn2C(c2ccc(C(F)(F)F)cc2F)C2CC2)c(=O)[nH]1 (single isomer, unassigned) [Example 135, (S)- or (R)-1-(Cyclopropyl(2-fluoro-4-(trifluoromethyl)phenyl)methyl)-6-(dimethylamino)-3-(hydroxymethyl)-1H-pyrazolo[3,4-d]pyrimidin-4(5H)-one]
24 | 0.058 nM | 0.042 nM |  |  |  | CN(C)c1nc2c(c(CF)nn2C(c2ccc(C(F)(F)F)cc2F)C2CC2)c(=O)[nH]1 (single isomer, unassigned) [Example 202, (R)- or (S)-1-(Cyclopropyl(2-fluoro-4-(trifluoromethyl)phenyl)methyl)-6-(dimethylamino)-3-(fluoromethyl)-1H-pyrazolo[3,4-d]pyrimidin-4(5H)-one]
25 | 0.61 nM | 0.6 nM |  |  |  | CN(C)c1nc2c(c(CO)nn2C(c2ccc(OC(F)F)c(F)c2)C2CC2)c(=O)[nH]1 (single isomer, unassigned) [Example 123, (S)- or (R)-1-(Cyclopropyl(4-(difluoromethoxy)-3-fluorophenyl)methyl)-6-(dimethylamino)-3-(hydroxymethyl)-1H-pyrazolo[3,4-d]pyrimidin-4(5H)-one]

Reference: patent US10174037B2, “Dihydropyrazolopyrimidinone compounds as PDE2 inhibitors” (Merck Sharp & Dohme Corp., priority 2015, dated 2019)
